Test results reported in patent US20210322375A1, “COMBINATION DRUG FORMULATIONS FOR TREATING PATIENTS WITH CARDIOVASCULAR DISEASE AND ASSOCIATED CONDITIONS” (Esperion Therapeutics, Inc., priority 2018, published 2021).

How the values were obtained:
[1] = test system: hypercholesterolemic patients; assay: Phase 2b trial: treatment-emergent adverse events and laboratory safety
Description: Study Population. Medically stable, hypercholesterolemic men and women aged 18 through 80 years with a body mass index between 18 to 45 kg/m^2 were included in the study. […] The study population included both statin-tolerant and statin-intolerant participants. Statin intolerance was defined as the inability to tolerate ≥2 statins because of muscle-related symptoms such as pain, weakness, or cramping that began or increased during statin therapy and resolved on statin discontinuation. At least 1 statin must have been administered at the lowest approved daily dose, defined as rosuvastatin 5 mg, atorvastatin 10 mg, simvastatin 10 mg, lovastatin 20 mg, pravastatin 40 mg, fluvastatin 40 mg, or pitavastatin 2 mg. Treatment with less than the lowest approved daily dose of a statin (i.e., skipping days) was considered equivalent to not tolerating 1 statin at the lowest approved daily dose.
Overall Study Design and Plan. […] Patients underwent a 5-week washout of all lipid-regulating drugs and dietary supplements and abstained from these drugs and supplements throughout the study. Patients also underwent a 5-week patient-only-blinded placebo run-in during the screening period (week −5 to week 0). This single-blind placebo run-in period was used to eliminate patients with muscle-related AEs during placebo treatment. Patients reporting new or worsening, unexplained muscle-related AEs during this run-in period were excluded from the study.
Patients were stratified (1:1) by history of statin intolerance and randomized at week 0 in a 4:4:4:1:1 ratio to once-daily treatment with capsules containing ETC-1002 120 mg, ETC-1002 180 mg, EZE, ETC-1002 120 mg plus EZE, or ETC-1002 180 mg plus EZE. […] A contract laboratory (Medpace Inc., Cincinnati, Ohio), performed all clinical laboratory tests. LDL-C was calculated using the Friedewald equation. Phlebotomy was performed after a minimum 12-hour fast (water was allowed) and only if the patient took their dose of study drug the previous day.
Safety Endpoints. The safety of ETC-1002 was assessed using treatment-emergent AEs; hematology, serum chemistry, and urinalysis laboratory values; physical examination findings; vital sign measurements; electrocardiogram (ECG) readings; weight; and ankle and waist circumference measurements. AEs were coded using the Medical Dictionary for Regulatory Activities version 16.0 and evaluated by the investigator for severity and relation to study drug. Muscle-related AEs were defined as those from the system organ class of musculoskeletal and connective tissue disorders, except for those that were not obviously muscle related. Terms included in the muscle-related AE analysis were selected from this system organ class after database lock and before unblinding.
Safety analyses were performed on the safety population, which included randomized patients who received at least 1 dose of study drug. Baseline patient characteristics were summarized for the safety population by treatment group and statin-tolerance subgroup.
Muscle-related AEs also were summarized by statin-tolerance subgroup.

[2] = test system: hypercholesterolemic patients; assay: Phase 2b randomized double-blind trial: percent change from baseline to week 12 in lipids and CRP; format: in vivo, human
Description: Brief Description of Clinical Study and Results.
Study Objectives. The primary objective was to assess the LDL-C-lowering effect of ETC-1002 monotherapy (120 mg or 180 mg daily) versus EZE monotherapy in hypercholesterolemic patients with or without statin intolerance. Secondary objectives were to characterize the dose response of ETC-1002, evaluate the impact of treatment on other lipid and cardiometabolic biomarkers, compare the LDL-C-lowering effect of ETC-1002 plus EZE combination therapy with EZE monotherapy, and characterize the safety and tolerability of the treatment regimens, including muscle-related adverse events (AEs).
Overall Study Design and Plan. […] 16, 2013 to Aug.
LDL-C was calculated using the Friedewald equation.
Efficacy Endpoints. The primary endpoint was the percent change from baseline to week 12 in calculated LDL-C in patients treated with ETC-1002 monotherapy versus those treated with EZE alone. Secondary endpoints included the dose-response relationship between ETC-1002 and the percent change in LDL-C from baseline to week 12, the percent change in LDL-C from baseline to week 12 in patients treated with ETC-1002 plus EZE versus those treated with EZE alone, and the percent change from baseline to week 12 for all treatment groups in LDL particle number, apolipoprotein B, total cholesterol, non-high-density lipoprotein cholesterol (non-HDL-C), HDL-C, HDL particle number, apolipoprotein A-I, triglycerides, very-low-density lipoprotein (VLDL) particle number, and high-sensitivity C-reactive protein (CRP). Lipoprotein particle number was measured using nuclear magnetic resonance […].
Statistical Plan and Analyses. The study was designed to include 322 patients: 92 patients in each monotherapy group and 23 patients in each combination therapy group. Sample size calculations were performed using nQuery Advisor® version 7.0 (Statistical Solutions, Cork, Ireland). The sample size of 92 patients per monotherapy group was expected to provide 90% power to detect a difference of 10% in the absolute percent change from baseline to week 12 in LDL-C between either ETC-1002 treatment group and the EZE monotherapy group. This calculation was based on a 2-sided t test at the 5% level of significance and assumed a common standard deviation of 15% in the statin-tolerant patients and 22% in the statin-intolerant patients with a dropout rate of 15%.
An analysis of covariance was used to compare each ETC-1002 treatment group with EZE monotherapy for each of the efficacy endpoints. The primary model included the effects of treatment and statin intolerance and the baseline value as a covariate. Baseline was defined as the mean of values from weeks −1 and 0 for LDL-C, non-HDL-C, total cholesterol, HDL-C, and triglycerides. For all other lipid and biomarker measures, baseline was defined as the last value before the first dose of study drug. Missing values at week 12 were imputed using the last-observation-carried-forward procedure. When LDL-C could not be calculated (i.e., triglycerides >400 mg/dL), beta-quantification measurements were used to determine LDL-C values. Least-squares (LS) means and standard errors were obtained for each treatment group; differences in LS means and p-values were obtained for the treatment comparisons. Graphical methods (e.g., normal probability plot and histogram of residuals, plot of residuals vs. predicted values) or analytical methods (e.g., Shapiro-Wilk test), or both, were used to assess the model assumptions. Because of departures from normality observed in the parameters of triglycerides, CRP, and VLDL particle number, nonparametric analyses were performed for these measures, with p-values obtained from the Wilcoxon rank-sum test and median values presented.
Percent changes from baseline in LDL-C also were summarized by statin-tolerance subgroup. […]

[3] = EZE 10 mg daily, safety population n = 99
[4] = statin-intolerant patients, EZE 10 mg, n = 51
[5] = statin-tolerant patients, EZE 10 mg, n = 48
[6] = EZE 10 mg daily, mITT n = 98, LS mean ± SE
[7] = EZE 10 mg daily, mITT n = 98, median (interquartile range)

O=C1[C@H](CC[C@H](O)c2ccc(F)cc2)[C@@H](c2ccc(O)cc2)N1c1ccc(F)cc1 [EZE, (3R,4S)-1-(4-fluorophenyl)-3-[(3S)-3-(4-fluorophenyl)-3-hydroxypropyl]-4-(4-hydroxyphenyl)azetidin-2-one, reference compound]
ALT or AST, or both, increased >3 times the upper limit of normal at any measurement ([1]; EZE): 1 patient | Serious AE reported (event) ([1]; EZE): transient ischemic attack | ALT increased, patients [1, 3]: 1 (1%) n (%) | AST increased, patients [1, 3]: 0 n (%) | Any AE(s), patients [1, 3]: 53 (54%) n (%) | Arthralgia, patients [1, 3]: 4 (4%) n (%) | Back pain, patients [1, 3]: 8 (8%) n (%) | Blood CK increased, patients [1, 3]: 1 (1%) n (%) | Constipation, patients [1, 3]: 1 (1%) n (%) | Discontinuation due to AE(s), patients [1, 3]: 8 (8%) n (%) | Headache, patients [1, 3]: 1 (1%) n (%) | Myalgia, patients [1, 3]: 6 (6%) n (%) | Nasopharyngitis, patients [1, 3]: 4 (4%) n (%) | Serious AE(s), patients [1, 3]: 1 (1%) n (%) | Study drug-related AE(s), patients [1, 3]: 19 (19%) n (%) | Upper respiratory tract infection, patients [1, 3]: 1 (1%) n (%) | Urinary tract infection, patients [1, 3]: 6 (6%) n (%) | Myalgia, patients, entire study population ([1]; EZE alone): 6% | Any muscle-related AE, patients [1, 4]: 9 (18%) n (%) | Muscle spasms, patients [1, 4]: 1 (2%) n (%) | Muscle-related AE leading to discontinuation, patients [1, 4]: 5 (10%) n (%) | Muscular weakness, patients [1, 4]: 1 (2%) n (%) | Musculoskeletal chest pain, patients [1, 4]: 0 n (%) | Musculoskeletal stiffness, patients [1, 4]: 1 (2%) n (%) | Myalgia, patients [1, 4]: 6 (12%) n (%) | Pain in extremity, patients [1, 4]: 3 (6%) n (%) | Sensation of heaviness, patients [1, 4]: 1 (2%) n (%) | Any muscle-related AE, patients [1, 5]: 3 (6%) n (%) | Muscle spasms, patients [1, 5]: 2 (4%) n (%) | Muscle-related AE leading to discontinuation, patients [1, 5]: 1 (2%) n (%) | Musculoskeletal pain, patients [1, 5]: 1 (2%) n (%) | Myalgia, patients [1, 5]: 0 n (%) | Apolipoprotein A-I, percent change from baseline to week 12 [2, 6]: 2.0 ± 1.1% | Apolipoprotein B, percent change from baseline to week 12 [2, 6]: −15.2 ± 1.2% | HDL particle number, percent change from baseline to week 12 [2, 6]: 6.7 ± 1.3% | HDL-C, percent change from baseline to week 12 [2, 6]: 5.0 ± 1.4% | LDL particle number, percent change from baseline to week 12 [2, 6]: −12.7 ± 1.7% | LDL-C, percent change from baseline to week 12 [2, 6]: −21.2 ± 1.3% | Non-HDL-C, percent change from baseline to week 12 [2, 6]: −18.7 ± 1.2% | Total cholesterol, percent change from baseline to week 12 [2, 6]: −14.3 ± 0.9% | CRP, percent change from baseline to week 12 [2, 7]: −10.5 (59.0) % | Triglycerides, percent change from baseline to week 12 [2, 7]: −7.0 (34.9) % | VLDL particle number, percent change from baseline to week 12 [2, 7]: −12.6 (63.4) % | CRP reduction ([2]; EZE alone): 10% | HDL-C increase ([2]; EZE alone, week 12): 5%
